Results from patent publication US12291516B2, “Substituted 1-amino-1H-imidazole-5-carboxamide as Bruton's tyrosine kinase inhibitors” (Henan Zhiwei Biomedicine Co., Ltd., priority 2019, dated 2025).

Tests used:
BTK [1] = target: T1, BTK (Homo sapiens (Human), UniProt Q06187); assay: In house ELISA kinase inhibition assay, BTK; format: biochemical; details: footnote b: from in house procedure (ELISA)
Protocol: (§1) BTK inhibition Assay and selectivity Assay The assay was conducted either a by a third party (Reaction Biology Corporation, PA, USA) or in house.
(§2) b) In House Procedure for BTK, BMX, EGFR and ITK:
(§3) Kinase inhibitory activities of compounds were evaluated using the Enzyme-linked immunosorbent assay (ELISA). The kinase enzyme of BTK, BMX, EGFR and ITK were purchased from Carna Bioscience (Kobe, Japan). A total of 10 ng/mL antiphosphotyrosine (PY713) antibody (abcam, Cambridge Science Park, UK) was precoated in 96-well ELISA plates. The kinase enzymes in each reaction well were set to BTK (101.25 ng/mL), BMX (90 ng/mL), EGFR (90 ng/mL) or ITK (120 ng/mL) and incubated with indicated drugs in 1× reaction buffer (50 mmol/L HEPES pH 7.4, 20 mmol/L MgCl2, 0.1 mmol/L MnCl2, 1 mmol/L DTT) containing 20 μmol/L (the final concentration of substrate in ITK reaction was 30 μmol/L) substrate (NH2-[…]-biotin) at 25° C. for 1 h. Then, a total of 3 μmol/L ATP was added and the reaction was continued for 2 h. The products of reaction were transferred into 96-well ELISA plates containing antibody and incubated at 25° C. for 30 min. After incubation, the wells were washed with PBS and then incubated with horseradish peroxidase (HRP)-conjugated streptavidin. The wells were visualized using 3,3′,5,5′-tetramethylbenzidine (TMB), and chromogenic reaction was ended with 2 mol/L H2SO4, the absorbance was read with a multimode plate reader (PerkinElmer, USA) at 450 nm. IC50 values and curve fits were obtained using Prism (GraphPad Software). (Table I-IV)

BTK [2] = target: T1, BTK; assay: BTK inhibition assay by Reaction Biology Corporation (33P-ATP, filter-binding); format: biochemical; details: footnote a: from Reaction Biology Corporation
Protocol: as §1
a) Reagent and Procedure by Reaction Biology Corporation:
Base Reaction buffer; 20 mM Hepes (pH 7.5), 10 mM MgCl2, 1 mM EGTA, 0.02%. Brij35, 0.02 mg/ml BSA, 0.1 mM Na3VO4, 2 mM DTT, 1% DMSO. Required cofactors were added individually to each kinase reaction. Compound handling: testing compounds were dissolved in 100% DMSO to specific concentration. The serial dilution was conducted by Integra Viaflo Assist in DMSO.
The substrate was prepared in freshly prepared reaction buffer of above and required cofactors were added to the substrate solution. The kinase was delivered to the substrate solution and the mixture was gently mixed. Testing compounds in 100% DMSO was added to the kinase reaction mixture by Acoustic technology (Echo550; nanoliter range) and the new mixture was incubated for 20 min at room temperature. Then ^33P-ATP (Specific activity 10 μCi/μl) was added to the reaction mixture to initiate the reaction and the mixture was incubated for 2 hours at room temperature. The radioactivity was detected by filter-binding method and the kinase activity data was expressed as the percent of remaining kinase activity in test sample compared to vehicle (dimethyl sulfoxide) reaction. IC50 values and curve fits were obtained using Prism (GraphPad Software). The result is outlined in Table-I

ITK = ITK (Homo sapiens (Human), UniProt Q08881); assay: In house ELISA kinase inhibition assay, ITK; format: biochemical; details: for IC50: in house ELISA; for Selectivity ratio: selectivity for BTK and ITK
ITK, sequence (Q08881 whole entry): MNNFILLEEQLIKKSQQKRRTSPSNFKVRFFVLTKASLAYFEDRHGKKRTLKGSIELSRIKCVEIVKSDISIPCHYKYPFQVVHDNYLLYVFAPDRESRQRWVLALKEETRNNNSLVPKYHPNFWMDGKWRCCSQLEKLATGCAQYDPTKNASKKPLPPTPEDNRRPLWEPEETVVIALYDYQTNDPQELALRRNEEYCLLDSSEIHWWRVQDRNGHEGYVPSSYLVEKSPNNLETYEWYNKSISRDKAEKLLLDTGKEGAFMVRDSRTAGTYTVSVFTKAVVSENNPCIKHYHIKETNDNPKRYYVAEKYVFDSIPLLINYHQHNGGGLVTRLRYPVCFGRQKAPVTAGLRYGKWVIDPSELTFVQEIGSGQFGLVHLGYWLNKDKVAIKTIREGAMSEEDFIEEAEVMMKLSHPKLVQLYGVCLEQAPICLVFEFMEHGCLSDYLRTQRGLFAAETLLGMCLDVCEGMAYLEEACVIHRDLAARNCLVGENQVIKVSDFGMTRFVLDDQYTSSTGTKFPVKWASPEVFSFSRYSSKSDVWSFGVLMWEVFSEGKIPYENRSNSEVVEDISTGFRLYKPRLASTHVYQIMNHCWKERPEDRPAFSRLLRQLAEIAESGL
Protocol: as §1, §2, §3

TMD-8 = assay: In-vitro antitumor activity assay (CellTiter-Glo cell antiproliferative activity); format: cell-based; details: Homo sapiens, TMD8, TMD-8 cells, 72 h
Protocol: In-Vitro Antitumor Activity Assay
Method: Reagent and procedure by Hefei PreceDo pharmaceuticals Co. Ltd.
Cell antiproliferative activity was evaluated by the CellTiter-Glo (Promega, USA) assay. Make 1000× compounds solution in DMSO, add 1 μl 1000× compounds to […] growth medium to make 20× compounds. Dilute cell suspensions in growth medium to desired density and 95 μl were taken to 96-well plate. Add 5 μl 20× compounds into 96-well plate according to the plate map. Final DMSO concentration in each well was 0.1%. Then the cell was incubated at 37° C., 5% CO2 for 72 h. Equilibrate the assay plate to room temperature before measurement. Add 20 μl of CellTiter-Glo© Reagent into each well. Mix contents for 2 minutes on an orbital shaker to induce cell lysis. Incubate at room temperature for 10 minutes to stabilize luminescent signal. Record luminescence using EnVision Multilabel Reader (PerkinElmer). Cell viability (CV %) was calculated relative to vehicle (DMSO) treated control wells using following formula: Cell viability (%)=(RLU compound−RLU blank)/(RLU control−RLU blank)*100%. The IC50 values were calculated using GraphPad Prism 6.0 software, fitting to a 4-parameter equation to generate concentration response curves. All assays were conducted with three parallel samples and three repetitions.

BMX = BMX (Homo sapiens (Human), UniProt P51813); assay: In house ELISA kinase inhibition assay, BMX; format: biochemical; details: for IC50: in house ELISA; for Selectivity ratio: selectivity for BTK and BMX
BMX, sequence (P51813 whole entry): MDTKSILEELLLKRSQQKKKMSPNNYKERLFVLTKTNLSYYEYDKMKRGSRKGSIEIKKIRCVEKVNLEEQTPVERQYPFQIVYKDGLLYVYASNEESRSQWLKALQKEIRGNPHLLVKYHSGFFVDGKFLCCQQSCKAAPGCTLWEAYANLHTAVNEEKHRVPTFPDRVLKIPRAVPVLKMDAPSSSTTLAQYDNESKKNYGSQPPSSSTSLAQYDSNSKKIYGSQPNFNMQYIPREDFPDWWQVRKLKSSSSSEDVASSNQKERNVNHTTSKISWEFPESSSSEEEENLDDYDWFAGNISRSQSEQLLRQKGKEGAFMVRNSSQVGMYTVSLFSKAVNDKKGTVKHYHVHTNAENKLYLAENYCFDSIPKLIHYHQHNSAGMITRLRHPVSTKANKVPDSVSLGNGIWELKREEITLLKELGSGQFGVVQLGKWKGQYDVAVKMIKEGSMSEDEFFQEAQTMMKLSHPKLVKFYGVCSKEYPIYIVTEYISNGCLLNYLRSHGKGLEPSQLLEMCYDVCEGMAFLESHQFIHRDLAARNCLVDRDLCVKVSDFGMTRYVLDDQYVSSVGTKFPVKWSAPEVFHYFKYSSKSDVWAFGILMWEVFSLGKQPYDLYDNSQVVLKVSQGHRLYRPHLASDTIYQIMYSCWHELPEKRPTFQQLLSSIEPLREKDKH
Protocol: as §1, §2, §3

EGFR = EGFR (Homo sapiens (Human), UniProt P00533); assay: In house ELISA kinase inhibition assay, EGFR; format: biochemical; details: for IC50: in house ELISA; for Selectivity ratio: selectivity for BTK and EGFR
EGFR, sequence (P00533 25-1210): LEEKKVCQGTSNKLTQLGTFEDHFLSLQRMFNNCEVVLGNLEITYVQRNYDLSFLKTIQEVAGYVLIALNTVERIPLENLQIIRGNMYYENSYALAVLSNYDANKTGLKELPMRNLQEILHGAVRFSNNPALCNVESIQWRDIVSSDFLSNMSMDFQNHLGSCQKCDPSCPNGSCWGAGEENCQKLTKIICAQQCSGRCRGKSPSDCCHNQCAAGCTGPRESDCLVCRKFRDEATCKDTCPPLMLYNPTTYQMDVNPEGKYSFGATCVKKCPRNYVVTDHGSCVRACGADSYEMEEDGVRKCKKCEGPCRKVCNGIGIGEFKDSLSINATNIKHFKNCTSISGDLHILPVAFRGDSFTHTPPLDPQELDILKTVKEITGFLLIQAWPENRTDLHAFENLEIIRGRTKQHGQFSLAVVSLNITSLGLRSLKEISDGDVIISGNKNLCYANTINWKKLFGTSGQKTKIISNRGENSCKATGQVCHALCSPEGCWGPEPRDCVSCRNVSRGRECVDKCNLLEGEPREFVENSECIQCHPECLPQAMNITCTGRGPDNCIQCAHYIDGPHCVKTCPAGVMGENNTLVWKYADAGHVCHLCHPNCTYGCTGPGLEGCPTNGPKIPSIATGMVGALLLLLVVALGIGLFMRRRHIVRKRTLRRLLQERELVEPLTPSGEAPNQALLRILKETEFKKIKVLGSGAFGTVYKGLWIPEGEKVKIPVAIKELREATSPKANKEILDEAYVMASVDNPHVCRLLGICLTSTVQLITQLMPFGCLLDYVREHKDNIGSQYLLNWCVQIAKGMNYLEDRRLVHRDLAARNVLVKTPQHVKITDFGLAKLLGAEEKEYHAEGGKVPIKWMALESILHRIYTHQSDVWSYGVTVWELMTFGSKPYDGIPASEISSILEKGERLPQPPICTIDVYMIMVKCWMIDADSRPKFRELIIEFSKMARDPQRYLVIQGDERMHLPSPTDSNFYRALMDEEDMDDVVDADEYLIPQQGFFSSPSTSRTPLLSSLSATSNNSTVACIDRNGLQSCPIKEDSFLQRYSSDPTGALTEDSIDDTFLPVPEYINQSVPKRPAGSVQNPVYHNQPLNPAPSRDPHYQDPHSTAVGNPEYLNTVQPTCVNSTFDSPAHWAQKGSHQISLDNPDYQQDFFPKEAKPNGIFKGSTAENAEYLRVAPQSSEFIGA
Protocol: as §1, §2, §3

T1 sequence (Q06187 whole entry): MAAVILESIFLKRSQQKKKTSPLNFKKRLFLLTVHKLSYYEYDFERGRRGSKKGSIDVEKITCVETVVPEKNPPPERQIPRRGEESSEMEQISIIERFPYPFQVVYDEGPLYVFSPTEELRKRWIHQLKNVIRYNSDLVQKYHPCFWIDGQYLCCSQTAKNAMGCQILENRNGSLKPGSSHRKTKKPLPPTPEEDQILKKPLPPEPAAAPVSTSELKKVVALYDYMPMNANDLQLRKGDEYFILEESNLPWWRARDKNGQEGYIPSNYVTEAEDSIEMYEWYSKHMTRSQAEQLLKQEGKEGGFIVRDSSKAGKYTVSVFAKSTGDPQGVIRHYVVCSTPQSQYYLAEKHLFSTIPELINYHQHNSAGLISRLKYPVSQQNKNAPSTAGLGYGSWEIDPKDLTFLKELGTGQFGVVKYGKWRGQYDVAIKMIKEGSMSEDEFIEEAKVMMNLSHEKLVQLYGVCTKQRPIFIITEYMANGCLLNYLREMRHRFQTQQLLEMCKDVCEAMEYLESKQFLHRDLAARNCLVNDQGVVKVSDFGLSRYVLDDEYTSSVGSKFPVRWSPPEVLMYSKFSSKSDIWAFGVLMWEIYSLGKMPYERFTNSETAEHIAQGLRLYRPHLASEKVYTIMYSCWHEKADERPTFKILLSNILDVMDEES

| Structure (SMILES) | IC50 (BTK [1]) | IC50 (BTK [2]) | also measured |
| --- | --- | --- | --- |
| C=CC(=O)N1CCCC[C@H]1c1nc(-c2ccc(C(=O)Nc3ccccn3)cc2)c(C(N)=O)n1N [Example 46, (S)-2-(1-acryloylpiperidin-2-yl)-1-amino-4-(4-(pyridin-2-ylcarbamoyl)phenyl)-1H-imidazole-5-carboxamide] | 13.1 nM | 44.6 nM | – |
| C=CC(=O)N1CCCC[C@H]1c1nc(-c2ccc(C(=O)Nc3nccs3)cc2)c(C(N)=O)n1N [Example 105, (S)-2-(1-acryloylpiperidin-2-yl)-1-amino-4-(4-(thiazol-2-ylcarbamoyl)phenyl)-1H-imidazole-5-carboxamide] | – | 18.7 nM | – |
| C=CC(=O)N1CCCC[C@H]1c1nc(-c2ccc(C(=O)Nc3ccc(Cl)cn3)cc2)c(C(N)=O)n1N [Example 86, (S)-2-(1-acryloylpiperidin-2-yl)-1-amino-4-(4-((5-chloropyridin-2-yl)carbamoyl)phenyl)-1H-imidazole-5-carboxamide] | – | 29.2 nM | – |
| C=CC(=O)N1CCCC[C@H]1c1nc(-c2ccc(C(=O)Nc3cc(C(C)C)ccn3)cc2)c(C(N)=O)n1N [Example 71, (S)-2-(1-acryloylpiperidin-2-yl)-1-amino-4-(4-((4-isopropylpyridin-2-yl)carbamoyl)phenyl)-1H-imidazole-5-carboxamide] | 22.6 nM | 55.1 nM | – |
| C=CC(=O)N1CCCC[C@H]1c1nc(-c2ccc(C(=O)Nc3cc(Cl)ccn3)cc2)c(C(N)=O)n1N [Example 72, (S)-2-(1-acryloylpiperidin-2-yl)-1-amino-4-(4-((4-chloropyridin-2-yl)carbamoyl)phenyl)-1H-imidazole-5-carboxamide] | 11.2 nM | 10.1 nM | IC50 (TMD-8): 19 nM |
| C=CC(=O)N1CCCC[C@H]1c1nc(-c2ccc(C(=O)Nc3cc(-c4ccc(F)cc4)ccn3)cc2)c(C(N)=O)n1N [Example 91, (S)-2-(1-acryloylpiperidin-2-yl)-1-amino-4-(4-((4-(4-fluorophenyl)pyridin-2-yl)carbamoyl)phenyl)-1H-imidazole-5-carboxamide] | – | 4.97 nM | – |
| C=CC(=O)N1CCCC[C@H]1c1nc(-c2ccc(C(=O)Nc3cc(CC)ccn3)cc2)c(C(N)=O)n1N [Example 73, (S)-2-(1-acryloylpiperidin-2-yl)-1-amino-4-(4-((4-ethylpyridin-2-yl)carbamoyl)phenyl)-1H-imidazole-5-carboxamide] | – | 9.68 nM | – |
| C=CC(=O)N1CCCC[C@H]1c1nc(-c2ccc(C(=O)Nc3cc(I)ccn3)cc2)c(C(N)=O)n1N [Example 89, (S)-2-(1-acryloylpiperidin-2-yl)-1-amino-4-(4-((4-iodopyridin-2-yl)carbamoyl)phenyl)-1H-imidazole-5-carboxamide] | – | 6.12 nM | – |

The next lines start with results.

| IC50 (BTK [1]) | IC50 (BTK [2]) | Structure (SMILES) | also measured |
| --- | --- | --- | --- |
| 176 nM | 131 nM | C=CC(=O)N1CCC[C@H]1c1nc(-c2ccc(C(=O)Nc3ccccn3)cc2)c(C(N)=O)n1N [Example 1, (S)-2-(1-acryloylpyrrolidin-2-yl)-1-amino-4-(4-(pyridin-2-yl-carbamoyl)phenyl)-1H-imidazole-5-carboxamide] | – |
| 19.4 nM | – | CC#CC(=O)N1CCCC[C@H]1c1nc(-c2ccc(C(=O)Nc3cc(Cl)ccn3)cc2)c(C(N)=O)n1N [Example 98, (S)-1-amino-2-(1-(but-2-ynoyl)piperidin-2-yl)-4-(4-((4-chloropyridin-2-yl)carbamoyl)phenyl)-1H-imidazole-5-carboxamide] | IC50 (ITK): 16500 nM; Selectivity ratio (ITK): 850; IC50 (TMD-8): 37 nM; IC50 (BMX): 1080 nM; Selectivity ratio (BMX): 55.8; IC50 (EGFR): 3980 nM; Selectivity ratio (EGFR): 206 |
| – | 10.7 nM | CC#CC(=O)N1CCCC[C@H]1c1nc(-c2ccc(C(=O)Nc3cc(I)ccn3)cc2)c(C(N)=O)n1N [Example 90, (S)-1-amino-2-(1-(but-2-ynoyl)piperidin-2-yl)-4-(4-((4-iodopyridin-2-yl)carbamoyl)phenyl)-1H-imidazole-5-carboxamide] | IC50 (ITK): 532 nM; Selectivity ratio (ITK): 49.9; IC50 (TMD-8): 35.1 nM; IC50 (BMX): 226 nM; Selectivity ratio (BMX): 21.2; IC50 (EGFR): 4680 nM; Selectivity ratio (EGFR): 439 |
| – | 14.7 nM | CC#CC(=O)N1CCCC[C@H]1c1nc(-c2ccc(C(=O)Nc3cc(-c4ccc(F)cc4)ccn3)cc2)c(C(N)=O)n1N [Example 92, (S)-1-amino-2-(1-(but-2-ynoyl)piperidin-2-yl)-4-(4-((4-(4-fluorophenyl)pyridin-2-yl)carbamoyl)phenyl)-1H-imidazole-5-carboxamide] | IC50 (ITK): 33100 nM; Selectivity ratio (ITK): 2255; IC50 (TMD-8): 90.8 nM; IC50 (BMX): 154 nM; Selectivity ratio (BMX): 10.5; IC50 (EGFR): 1090 nM; Selectivity ratio (EGFR): 74 |
| 30.3 nM | 24.4 nM | C#CC(=O)N1CCC[C@H]1c1nc(-c2ccc(C(=O)Nc3cc(C)ccn3)cc2)c(C(N)=O)n1N [Example 17, (S)-1-amino-4-(4-((4-methylpyridin-2-yl)carbamoyl)phenyl)-2-(1-propioloylpyrrolidin-2-yl)-1H-imidazole-5-carboxamide] | – |
| – | 85 nM | C#CC(=O)N1CCC[C@H]1c1nc(-c2ccc(C(=O)Nc3ccccn3)cc2)c(C(N)=O)n1N [Example 7, (S)-1-amino-2-(1-propioloylpyrrolidin-2-yl)-4-(4-(pyridin-2-ylcarbamoyl)phenyl)-1H-imidazole-5-carboxamide] | – |
| – | 2210 nM | CCc1ccnc(NC(=O)c2ccc(-c3nc([C@@H]4CCCN4C(=O)C=C(C)C)n(N)c3C(N)=O)cc2)c1 [Example 37, (S)-1-amino-4-(4-((4-ethylpyridin-2-yl)carbamoyl)phenyl)-2-(1-(3-methylbut-2-enoyl)pyrrolidin-2-yl)-1H-imidazole-5-carboxamide] | – |
| 3080 nM | 7200 nM | CC#CC(=O)N1CCC[C@H]1c1nc(-c2ccc(C(=O)Nc3cc(C)ccn3)cc2)c(C(N)=O)n1N [Example 18, (S)-1-amino-2-(1-(but-2-ynoyl)pyrrolidin-2-yl)-4-(4-((4-methylpyridin-2-yl)carbamoyl)phenyl)-1H-imidazole-5-carboxamide] | – |
| – | 13.5 nM | C#CC(=O)N1CCC[C@H]1c1nc(-c2ccc(C(=O)Nc3cc(OC)ccn3)cc2)c(C(N)=O)n1N [Example 33, (S)-1-amino-4-(4-((4-methoxypyridin-2-yl)carbamoyl)phenyl)-2-(1-propioloylpyrrolidin-2-yl)-1H-imidazole-5-carboxamide] | – |
| 18.4 nM | 12.5 nM | C#CC(=O)N1CCC[C@H]1c1nc(-c2ccc(C(=O)Nc3ccc(C)cn3)cc2)c(C(N)=O)n1N [Example 26, (S)-1-amino-4-(4-((5-methylpyridin-2-yl)carbamoyl)phenyl)-2-(1-propioloylpyrrolidin-2-yl)-1H-imidazole-5-carboxamide] | – |
| – | 4.38 nM | C=CC(=O)N1CCCC[C@H]1c1nc(-c2ccc(C(=O)Nc3cc(Br)ccn3)cc2)c(C(N)=O)n1N [Example 87, (S)-2-(1-acryloylpiperidin-2-yl)-1-amino-4-(4-((4-bromopyridin-2-yl)carbamoyl)phenyl)-1H-imidazole-5-carboxamide] | – |
